How the values were obtained:
[1] = tested on: PCA-induced ejaculation in anaesthetised rats; test: p-chloroamphetamine (PCA)-induced ejaculation in anaesthetised rat model of premature ejaculation; type: in vivo; details: for animals that failed to ejaculate within 30 minutes: assigned ejaculatory latency of 1800 s
Method: In order to study penile erection and ejaculation the method used was based on the methodology taught in Yonezawa et al (2000) Life Sciences 67, 3031-3039. For ease of reference, this methodology is described below:
Male Sprague Dawley rats, weighing 350-450 g, are used. Prior to the experiments the animals are housed in groups (2 rats per cage) under controlled 12 h light-dark cycle (lights on at 07:00), constant temperature (23±1° C.) and humidity (55±5%). They have free access to standard food pellets and water.
Rats are anesthestised with sodium pentobarbitone (50 mg/kg, i.p.) and are placed in the supine position. The penis is extruded from its sheath and gently held by a wooden applicator positioned at the base of the penis. The test compounds are administered orally and p-chloroamphetamine (PCA) (5-10 mg/kg) is administered i.p. immediately before the sheath retraction and the penile responses, including penile erection, redding and expansion of the penile body, glans erection, engorgement and slight flaring of the glans and cup, glans erection with intense flaring of the glans, are recorded in the presence of test compound or vehicle. Latencies from PCA administration to the initial penile response and ejaculation is also measured in seconds in the presence of test compound or vehicle.
Compound (XI) was dosed orally and was tested at 1, 3, 10 or 30 mg/kg po, 60 min prior to PCA administration).

[2] = tested on: rapid ejaculating rats; test: Copulatory behaviour in rapid ejaculating conscious rats (model of premature ejaculation); type: in vivo, rat
Method: For all the sexual behavour tests, the rapid ejaculating male rats were used as an animal model of premature ejaculation (classified as ejaculatory latency <300 s during baseline assessment). Rapid ejaculating rats were placed in an observation arena (50-60 cm diameter), starting 5 hours into the dark cycle and observed under red ilumination. Three to four minutes after placing the male in the arena, a receptive female (ovariectomised, oestradiol benzoate/progesterone injection 48 hour before behavioural study) was introduced into the arena and the following parameters noted: • i) ejaculatory latency (EJL; time taken from addition of receptive female into the arena to ejaculation); • ii) copulatory efficiency (CE; ejaculatory latency/the number of intromissions to ejaculation, i.e. the number of seconds between intromissions); • iii) intromission frequency (IF; the number of intromissions to ejaculation); • iv) mount frequency (MF; the number of mounts to ejaculation); • v) post ejaculatory interval (PEI; the time taken from ejaculation to the commencement of copulatory behaviour). The Compound Used in the Following Examples was as Follows:
Rodent copulatory behaviour is characterised by a series of mounts, with and without vaginal insertion (50-80% of mounts result in intromission [vaginal penetration]) and ejaculation occurs after 6 to 12 intromissions. Each intromission lasts a matter of seconds—it is not possible to quantify intromission length i.e. intravaginal latency. The effect of Compound (XI) was assessed on a number of copulatory parameters (see above). We have focused ejaculatory latency as a clinical biomarker of time taken to achieve ejaculation. The study was performed in rapid ejaculating rats as a model of premature ejaculation (rats characterised by ejaculatory latency <300 s at baseline).
Compound (XI), an alpha-2-delta ligand, increased ejaculatory latency by 58% in rapidly-ejaculating conscious rats (P<0.01); i.e. Compound (XI) (10 mg/kg, 60 min post oral dosing)-treated animals took 219 s to ejaculate compared to 139 s in vehicle treated animals (see Table 2 below).

`NC[C@]1(CC(=O)O)C[C@H]2CCC[C@H]21` [Compound (XI), (1R,5R,6S)-[6-(Aminomethyl)bicyclo[3.2.0]hept-6-yl]acetic acid] was tested, and the “animals that failed to ejaculate within 30 minutes” value ([1]; 3 mg/kg po) was 3 out of 7, the “time taken to achieve erection” value ([1]; 10 mg/kg po) was “small delay” and the “animals that failed to ejaculate within 30 minutes” value ([1]; 10 mg/kg po) was 3 out of 7. The “time taken to achieve erection” value ([1]; 30 mg/kg po) was “small delay”, the “p-chloroamphetamine (PCA)-induced ejaculation” value ([1]; anaesthetised rats, 1, 3, 10 or 30 mg/kg po, 60 min prior to PCA administration) was “significantly delayed” and the quality of erection ([1]; anaesthetised rats, 1-30 mg/kg po) was “not influenced”. For the same compound, the “increase of ejaculatory latency” value ([1]; anaesthetised rats, dose-dependent, 1-30 mg/kg po, 60 min prior to PCA) was “up to 250%”, the ejaculatory latency ([1]; anaesthetised rats, doses above 3 mg/kg po, vehicle circa 300 s) was “circa 1000 s” and the “ejaculatory latency” value ([2]; 10 mg/kg po, mean ± sem (n = 6), P < 0.01) was 219 ± 26 s. The “other effects on copulatory behaviour” value ([2]; rapidly-ejaculating conscious rats, 10 mg/kg po) was “no other significant effects”, the “increase of ejaculatory latency” value ([2]; rapidly-ejaculating conscious rats, 10 mg/kg, 60 min post oral dosing, P<0.01) was 58% and the “time to ejaculate (ejaculatory latency)” value ([2]; rapidly-ejaculating conscious rats, 10 mg/kg, 60 min post oral dosing, vehicle 139 s) was 219 s.

— patent US7432299B2, “Method of treatment for sexual dysfunction” (Pfizer Inc., priority 2002, dated 2008)
